From patent US20250171414A1, “COMPOUND SERVING AS MASP-2 INHIBITOR, PHARMACEUTICAL COMPOSITION, PREPARATION METHOD THEREFOR, AND USE THEREOF” (WUHAN CREATERNA SCIENCE AND TECHNOLOGY CO., LTD., priority 2022, published 2025) come the findings set out here.

Where two headings read alike, the source gives them in different places.

By IC50 is commonly meant the concentration that gives 50% inhibition. Usually Cmax stands for the peak of the concentration-time curve. What is called AUC(0-t) is exposure summed from dosing to a finite time, without extrapolation to infinity. As a reminder, the half-life is how long it takes for the measured level to halve. High values mean slow decline, low ones rapid decline.

For data set [1], the system named is lectin pathway (MBL) in human serum. As to the kind of experiment: Inhibition of activity of lectin pathway (MBL) in human serum (WIESLAB Complement System MBL Pathway kit). In kind it is biochemical. As to conditions: 1% human serum. Here is the method:
The inhibition of the activity of the lectin pathway (MBL) in human serum by compounds was detected using a WIESLAB® Complement System MBL Pathway kit (SVAR, COMPLMP320). Test compounds were each serially diluted in a buffer (Diluent MP), and 1% human serum was incubated with the diluted compound solution for 15 min at room temperature. 100 μL of the mixture was added to a microplate and incubated at 37° C. for 60 min. The liquid in the wells was discarded, and the microplate was washed three times with a washing solution. A Conjugate antibody solution was added at 100 μL/well, and the resulting mixture was incubated for 30 min at 25° C. The liquid in the wells was discarded, and the microplate was washed three times with a washing solution; a substrate solution was added at 100 μL/well, and the resulting mixture was incubated for 30 min at 25° C.; the terminator was added at 50 μL/well, and the absorbance at 405 nm was detected within 30 min by using a microplate reader.

Data set [2] in a line: In vivo pharmacokinetic study in SD rats. Particulars: 1 mg/kg, clear. Here is the method:
After adaptive feeding, the SPF SD rats were each subjected to a single administration of 1 mg/kg or 3 mg/kg of the compound of the present disclosure intragastrically or by tail vein bolus injection. Plasma was collected at specific time points after administration, and the concentration of the compound in plasma was detected by LC-MS/MS (AB Sciex Qtrap 4500).

[3] abbreviates: Sprague-Dawley (SD), rat, plasma, IV, not fasting.
Setting [4] is: Sprague-Dawley (SD), rat, plasma, IV, not fasting, read-out: Cmax.
The mark [5] stands for this setting: Sprague-Dawley (SD), rat, plasma, PO, fasting.
The mark [6] stands for this setting: Sprague-Dawley (SD), rat, plasma, PO, fasting, read-out: Cmax.

The compound `C[C@H](NC(=O)[C@H]1C[C@H](Cc2ccc(Cl)cc2)CN1)C(=O)NC1CCc2nc(N)ccc21` (stereo partly drawn) [Compound L003, (2R,4S)—N-((2S)-1-((2-amino-6,7-dihydro-5H-cyclopenta[b]pyridin-5-yl)amino)-1-oxopropan-2-yl)-4-(4-chlorobenzyl) pyrrolidine-2-carboxamide] returned an IC50 in data set [1] of 5.17 nM. In data set [2] (IV, not fasting), this compound registered an AUClast of 95.06 ± 0.77 µg·h/mL, a Cmax of 25.4 ± 1.94 µg/mL and a T1/2 of 5.84 ± 0.55 h. Further, in data set [2] (PO, fasting), the AUClast stood at 11.167 ± 1.986 µg·h/mL, the Cmax amounted to 1.777 ± 0.394 µg/mL and the T1/2 came to 5.89 h.
In data set [1], `C[C@H](NC(=O)[C@@H]1C=C(c2ccc(F)c(F)c2)CCN1)C(=O)N[C@@H]1CCc2nc(N)ccc21` (single isomer, unassigned) [Compound L069-IS-02] displayed an IC50 of 17.4 nM. Besides, the AUC(0-t) was 20 ± 3.84 µg·h/mL in data set [2] (setting [3]) and 6.93 ± 0.968 µg·h/mL in data set [2] (setting [5]). The half-life in data set [2] (setting [3]) was 3.39 ± 0.17 h; in data set [2] (setting [5]) it was 3.37 h. The Cmax was found to be 15.7 ± 1.13 µg/mL in data set [2] (setting [4]) and 1.19 ± 0.162 µg/mL in data set [2] (setting [6]).
In data set [1], `C[C@H](NC(=O)[C@H]1CC(C(F)(F)c2ccc(F)cc2)CN1)C(=O)N[C@@H]1CCc2nc(N)ccc21` (stereo partly drawn) [Compound L050, (2R)—N—((S)-1-(((R)-2-amino-6,7-dihydro-5H-cyclopenta[b]pyridin-5-yl)amino)-1-oxopropan-2-yl)-4-(difluoro (4-fluorophenyl)methyl) pyrrolidine-2-carboxamide] returned an IC50 of 2.64 nM. In data set [2] (IV, not fasting), this compound displayed an AUClast of 16.723 ± 0.86 µg·h/mL, a Cmax of 27.167 ± 1.299 µg/mL and a T1/2 of 2.13 ± 0.25 h. In data set [2] (PO, fasting), this compound displayed an AUClast of 3.638 ± 0.335 µg·h/mL, a Cmax of 1.373 ± 0.162 µg/mL and a T1/2 of 2.21 ± 0.27 h.
`C[C@H](NC(=O)[C@H]1C=C(c2cccc(F)c2)CCN1)C(=O)N[C@@H]1CCc2nc(N)ccc21` [Compound L083, (R)—N—((S)-1-(((R)-2-amino-6,7-dihydro-5H-cyclopenta[b]pyridin-5-yl)amino)-1-oxopropan-2-yl)-4-(3-fluorophenyl)-1,2,5,6-tetrahydropyridine-2-carboxamide] displayed an IC50 in data set [1] of 10.6 nM. Besides, the AUC(0-t) in data set [2] (setting [3]) amounted to 16.4 ± 0.936 µg·h/mL; in data set [2] (setting [5]), 3.36 ± 0.778 µg·h/mL. In addition, the half-life was 2.71 ± 0.23 h in data set [2] (setting [3]) and 2.97 ± 0.07 h in data set [2] (setting [5]). Moreover, the Cmax was determined as 18 ± 0.85 µg/mL in data set [2] (setting [4]) and 1.09 ± 0.295 µg/mL in data set [2] (setting [6]).
Regarding `C[C@H](NC(=O)[C@H]1C=C(c2cccc(F)c2F)CCN1)C(=O)N[C@@H]1CCc2nc(N)ccc21` [Compound L084, (R)—N—((S)-1-(((R)-2-amino-6,7-dihydro-5H-cyclopenta[b]pyridin-5-yl)amino)-1-oxopropan-2-yl)-4-(2,3-difluorophenyl)-1,2,5,6-tetrahydropyridine-2-carboxamide], in data set [1], inhibition was half-maximal at 13.3 nM (IC50). For the same compound, the AUC(0-t) is 26 ± 1.48 µg·h/mL in data set [2] (setting [3]) and 6.88 ± 1.43 µg·h/mL in data set [2] (setting [5]). Further, the half-life in data set [2] (setting [3]) is 3.68 ± 0.22 h; in data set [2] (setting [5]) it was 3.09 ± 0.05 h. Further, the Cmax in data set [2] (setting [4]) was determined as 18.2 ± 0.929 µg/mL; in data set [2] (setting [6]) it was 2.14 ± 0.664 µg/mL.
As to `C[C@H](NC(=O)[C@H]1C=C(c2ccccc2F)CCN1)C(=O)N[C@@H]1CCc2nc(N)ccc21` [Compound L082, (R)—N—((S)-1-(((R)-2-amino-6,7-dihydro-5H-cyclopenta[b]pyridin-5-yl)amino)-1-oxopropan-2-yl)-4-(2-fluorophenyl)-1,2,5,6-tetrahydropyridine-2-carboxamide], half-maximal inhibition in data set [1] (IC50) required 8.85 nM. Also, the results for the AUC(0-t) in data set [2] (setting [3]) and in data set [2] (setting [5]) were 24.7 ± 1.03 µg·h/mL and 6.11 ± 1.21 µg·h/mL, respectively. Also, the half-life in data set [2] (setting [3]) was 3.21 ± 0.19 h; in data set [2] (setting [5]), 2.85 ± 0.05 h. For the same compound, the results for the Cmax in data set [2] (setting [4]) and in data set [2] (setting [6]) were 18.6 ± 1.97 µg/mL and 1.43 ± 0.283 µg/mL, respectively.
As for `C[C@H](NC(=O)C1C=C(c2ccc(F)cc2)CCN1)C(=O)N[C@@H]1CCc2nc(N)ccc21` (single isomer, unassigned) [Compound L064-IS-02], it took 7.57 nM to reach half-maximal inhibition in data set [1] (IC50). In addition, the AUC(0-t) in data set [2] (setting [3]) worked out at 15.6 ± 5.15 µg·h/mL; in data set [2] (setting [5]), 2.63 ± 0.245 µg·h/mL. The half-life is 4.18 ± 1.02 h in data set [2] (setting [3]) and 5.57 ± 1.46 h in data set [2] (setting [5]). The values for the Cmax in data set [2] (setting [4]) and in data set [2] (setting [6]) were 16 ± 2.07 µg/mL and 0.875 ± 0.155 µg/mL, respectively.
In the case of `C[C@H](NC(=O)[C@H]1C[C@H](Cc2cccc(Cl)c2)CN1)C(=O)NC1CCc2nc(N)ccc21` (stereo partly drawn) [Compound L014, (2R,4S)—N-((2S)-1-((2-amino-6,7-dihydro-5H-cyclopenta[b]pyridin-5-yl)amino)-1-oxopropan-2-yl)-4-(3-chlorobenzyl) pyrrolidine-2-carboxamide], inhibition in data set [1] was half-maximal at 2.71 nM (IC50). In data set [2] (IV, not fasting), this compound registered an AUClast of 89.916 ± 4.999 µg·h/mL, a Cmax of 24.633 ± 0.167 µg/mL and a T1/2 of 7.81 ± 1.16 h. In data set [2] (PO, fasting), this compound gave an AUClast of 13.18 ± 3.323 µg·h/mL, a Cmax of 1.967 ± 0.568 µg/mL and a T1/2 of 12.5 h.
As for `C[C@H](NC(=O)[C@@H]1C=C(c2ccc(Cl)cc2)CCN1)C(=O)N[C@@H]1CCc2nc(N)ccc21` (single isomer, unassigned) [Compound L066-IS-02], the midpoint of inhibition in data set [1], the IC50, lay at 9.52 nM. Besides, the AUC(0-t) in data set [2] (setting [3]) was determined as 17.1 ± 4.64 µg·h/mL; in data set [2] (setting [5]), 3.24 ± 0.233 µg·h/mL. Moreover, the figures for the half-life in data set [2] (setting [3]) and in data set [2] (setting [5]) were 4.51 ± 1.29 h and 4.93 ± 0.51 h, respectively. The Cmax in data set [2] (setting [4]) amounted to 15.9 ± 1.07 µg/mL; in data set [2] (setting [6]) it was 1.14 ± 0.164 µg/mL.
Compound `Cc1cccc(C[C@@H]2CN[C@@H](C(=O)N[C@@H](C)C(=O)NC3CCc4nc(N)ccc43)C2)c1` (stereo partly drawn) [Compound L016, (2R,4S)—N-((2S)-1-((2-amino-6,7-dihydro-5H-cyclopenta[b]pyridin-5-yl)amino)-1-oxopropan-2-yl)-4-(3-methylbenzyl) pyrrolidine-2-carboxamide] had an IC50 in data set [1] of 4.64 nM.
Same read-out and setting: to `C[C@H](NC(=O)[C@H]1CN(Cc2ccccc2)CCN1)C(=O)NC1CCc2nc(N)ccc21` (stereo partly drawn) [Compound L024, (2R)—N-((2S)-1-((2-amino-6,7-dihydro-5H-cyclopenta[b]pyridin-5-yl)amino)-1-oxopropan-2-yl)-4-benzylpiperazine-2-carboxamide] belongs 6.34 nM; to `C[C@H](NC(=O)[C@H]1C[C@@H](c2cccc(F)c2F)CCN1)C(=O)NC1CCc2nc(N)ccc21` (stereo partly drawn) [Compound L048-IS-02, (2R,4S)-N-((2S)-1-((2-amino-6,7-dihydro-5H-cyclopenta[b]pyridin-5-yl)amino)-1-oxopropan-2-yl)-4-(2,3-difluorophenyl)piperidine-2-carboxamide], 6.08 nM; to `Cc1cc(C2=C[C@@H](C(=O)N[C@@H](C)C(=O)N[C@@H]3CCc4nc(N)ccc43)NCC2)ccc1F` (single isomer, unassigned) [Compound L071-IS-02], 7.85 nM.
Turning to `C[C@H](NC(=O)[C@@H]1C=C(c2ccc(F)c(Cl)c2)CCN1)C(=O)N[C@@H]1CCc2nc(N)ccc21` [Compound L072-IS-02, (S)-N-((S)-1-(((R)-2-amino-6,7-dihydro-5H-cyclopenta[b]pyridin-5-yl)amino)-1-oxopropan-2-yl)-4-(3-chloro-4-fluorophenyl)-1,2,5,6-tetrahydropyridine-2-carboxamide], the IC50 in data set [1] is 9.26 nM.
On the same count and under the same terms, with `C[C@H](NC(=O)[C@H]1C[C@@H](c2ccc(F)cc2)CCN1)C(=O)NC1CCc2nc(N)ccc21` (stereo partly drawn) [Compound L033-IS-02, (2R,4S)—N-((2S)-1-((2-amino-6,7-dihydro-5H-cyclopenta[b]pyridin-5-yl)amino)-1-oxopropan-2-yl)-4-(4-fluorophenyl) piperidine-2-carboxamide] the figure was 2.26 nM.
For `C[C@H](NC(=O)[C@H]1C[C@@H](c2ccccc2F)CCN1)C(=O)NC1CCc2nc(N)ccc21` (stereo partly drawn) [Compound L038-IS-02, (2R,4S)—N-((2S)-1-((2-amino-6,7-dihydro-5H-cyclopenta[b]pyridin-5-yl)amino)-1-oxopropan-2-yl)-4-(2-fluorophenyl) piperidine-2-carboxamide], the IC50 in data set [1] was determined as 4.76 nM.
On the same count and under the same terms, to `C[C@H](NC(=O)[C@H]1C[C@@H](c2cccc(OC(F)(F)F)c2)CCN1)C(=O)NC1CCc2nc(N)ccc21` (stereo partly drawn) [Compound L046-IS-02, (2R,4S)-N-((2S)-1-((2-amino-6,7-dihydro-5H-cyclopenta[b]pyridin-5-yl)amino)-1-oxopropan-2-yl)-4-(3-(trifluoromethoxy)phenyl)piperidine-2-carboxamide] belongs 3.71 nM.
On the same count and under the same terms, to `C[C@H](NC(=O)[C@@H]1C=C(c2ccc(F)cc2C(F)F)CCN1)C(=O)N[C@@H]1CCc2nc(N)ccc21` [Compound L080-IS-02, (S)—N—((S)-1-(((R)-2-amino-6,7-dihydro-5H-cyclopenta[b]pyridin-5-yl)amino)-1-oxopropan-2-yl)-4-(2-(difluoromethyl)-4-fluorophenyl)-1,2,5,6-tetrahydropyridine-2-carboxamide] belongs 2.87 nM.
